Assay results reported in US20230096145A1, “METHODS OF CONTROLLING OR PREVENTING INFESTATION OF PLANTS BY THE PHYTOPATHOGENIC MICROORGANISM CORYNESPORA CASSIICOLA” (SYNGENTA CROP PROTECTION AG, priority 2020, published 2023).

test system: Corynespora cassiicola; experiment: Corynespora cassiicola liquid culture growth inhibition (microtiter plate, PDB); assay type: cell-based; conditions: compared to untreated control, photometric at 620 nm after 3-4 days at 24 C
Procedure: Conidia of the fungus from cryogenic storage were directly mixed into nutrient broth (PDB potato dextrose broth). A DMSO solution of the test compounds was placed into a microtiter plate (96-well format) and the nutrient broth containing the fungal spores was added to it. The test plates were incubated at 24 C and the inhibition of growth (% control of Corynespora cassiicola) was determined photometrically after 3-4 days at 620 nm. The activity of a compound is derived by comparing the inhibition of growth in the treated test solution to the growth in the untreated check. The concentration of the compounds was 6.7, 2.2, 0.74, 0.25, 0.082 and 0.027 ppm.

| SMILES | inhibition at 6.7 ppm [%] |
| --- | --- |
| Cc1ccc2c(C3=NC(C)(C)C(F)(F)c4ccccc43)cnn2c1C [Compound 1] | ≥ 70 |
| Cc1cccc2c(C3=NC(C)(C)C(F)(F)c4ccccc43)cnn12 [Compound 2] | ≥ 70 |
| Cc1ccc2c(C3=NC(C)(C)C(F)(F)c4ccccc43)cnn2c1 [Compound 3] | ≥ 70 |
| Cc1ccc2c(C3=NC(C)(C)C(F)(F)c4c(F)cccc43)cnn2c1C [Compound 4] | ≥ 70 |
| Cc1ccc2c(C3=NC(C)(C)C(F)(F)c4cc(F)ccc43)cnn2c1C [Compound 5] | ≥ 70 |
